# Assay results reported in patent US8835432B2, “Heterocyclic compounds and their uses” (Amgen Inc., priority 2012, dated 2014).
# Tests used:
# [1] = tested on: model of systemic lupus erythematosis; settings: in vivo; cited from earlier work
# [2] = tested on: mouse model of rheumatoid arthritis; settings: in vivo; cited from earlier work
# [3] = molecular target: T1, PI3Kb (Homo sapiens, UniProt P42338); assay: Forkhead translocation assay (MDA MB468 Forkhead-DiversaGFP cells); assay type: cell-based; design: endogenous in cells; host or cells: MDA MB468 (Forkhead-DiversaGFP) cells; settings: first value of the cell; MDA468 forkhead; read-out: PI3KbMDA468 FH
# Description: (§1) GFP Assays for Detecting Inhibition of Class Ia and Class III PI3K
# Forkhead (FKHRL1) is a substrate for AKT1. It is cytoplasmic when phosphorylated by AKT (survival/growth). Inhibition of AKT (stasis/apoptosis)-forkhead translocation to the nucleus
# Forkhead Translocation Assay (MDA MB468 Forkhead-DiversaGFP Cells)
# Treat cells with compound in growth medium 1 h. Fix and image.
# [4] = molecular target: T2, PI3Kg (Homo sapiens, UniProt P48736); assay: In vitro enzyme assay, PI3K gamma; assay type: biochemical; settings: for PI3K: g/d: ratio of gamma to delta IC50
# T2 construct: Truncated PI3Kγ, residues 114-1102, N-terminally labeled with polyHis tag; polyHis (N); made in house; host or cells: Hi5 insect cells (baculovirus)
# T2 sequence (P48736 114-1102): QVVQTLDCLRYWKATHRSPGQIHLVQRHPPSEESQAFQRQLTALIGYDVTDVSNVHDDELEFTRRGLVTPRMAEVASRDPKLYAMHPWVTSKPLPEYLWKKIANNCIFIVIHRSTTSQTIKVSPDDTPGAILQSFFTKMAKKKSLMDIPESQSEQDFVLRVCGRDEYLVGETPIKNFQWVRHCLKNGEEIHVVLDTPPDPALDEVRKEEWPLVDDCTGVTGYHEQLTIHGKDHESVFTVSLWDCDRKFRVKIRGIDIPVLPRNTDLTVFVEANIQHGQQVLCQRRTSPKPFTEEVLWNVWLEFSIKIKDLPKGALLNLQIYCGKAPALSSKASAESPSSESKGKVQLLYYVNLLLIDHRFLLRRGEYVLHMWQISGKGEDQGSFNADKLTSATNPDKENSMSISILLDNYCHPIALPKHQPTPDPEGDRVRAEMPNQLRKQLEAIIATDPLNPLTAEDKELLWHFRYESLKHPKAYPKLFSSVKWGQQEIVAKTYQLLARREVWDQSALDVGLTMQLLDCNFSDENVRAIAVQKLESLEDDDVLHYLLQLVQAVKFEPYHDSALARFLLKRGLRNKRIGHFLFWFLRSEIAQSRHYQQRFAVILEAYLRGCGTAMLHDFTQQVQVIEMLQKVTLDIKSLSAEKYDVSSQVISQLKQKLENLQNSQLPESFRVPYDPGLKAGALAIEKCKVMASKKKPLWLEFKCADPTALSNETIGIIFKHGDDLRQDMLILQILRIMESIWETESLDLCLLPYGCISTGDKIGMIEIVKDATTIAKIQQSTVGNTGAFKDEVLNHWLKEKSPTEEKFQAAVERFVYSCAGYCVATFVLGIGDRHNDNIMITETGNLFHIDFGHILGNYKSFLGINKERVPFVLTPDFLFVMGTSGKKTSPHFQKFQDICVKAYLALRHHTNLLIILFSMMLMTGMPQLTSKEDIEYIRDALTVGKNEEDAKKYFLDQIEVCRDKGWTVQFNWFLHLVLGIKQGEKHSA
# Description: (§2) Full length p110 subunits of PI3k α, β and δ, N-terminally labeled with polyHis tag, were coexpressed with p85 with Baculo virus expression vectors in sf9 insect cells. P110/p85 heterodimers were purified by sequential Ni-NTA, Q-HP, Superdex-100 chromatography. Purified α, β and δ isozymes were stored at −20° C. in 20 mM Tris, pH 8, 0.2M NaCl, 50% glycerol, 5 mM DTT, 2 mM Na cholate. Truncated PI3Kγ, residues 114-1102, N-terminally labeled with polyHis tag, was expressed with Baculo virus in Hi5 insect cells. The γ isozyme was purified by sequential Ni-NTA, Superdex-200, Q-HP chromatography. The γ isozyme was stored frozen at −80° C. in NaH2PO4, pH 8, 0.2M NaCl, 1% ethylene glycol, 2 mM β-mercaptoethanol.
# (§3) Assays were performed in 25 μL with the above final concentrations of components in white polyproplyene plates (Costar 3355). Phospatidyl inositol phosphoacceptor, PtdIns(4,5)P2 P4508, was from Echelon Biosciences. The ATPase activity of the alpha and gamma isozymes was not greatly stimulated by PtdIns(4,5)P2 under these conditions and was therefore omitted from the assay of these isozymes. Test compounds were dissolved in dimethyl sulfoxide and diluted with three-fold serial dilutions. The compound in DMSO (1 μL) was added per test well, and the inhibition relative to reactions containing no compound, with and without enzyme was determined After assay incubation at rt, the reaction was stopped and residual ATP determined by addition of an equal volume of a commercial ATP bioluminescence kit (Perkin Elmer EasyLite) according to the manufacturer's instructions, and detected using a AnalystGT luminometer.
# [5] = tested on: pAKT; assay: pAKT in vivo assay; settings: mice, p.o.; for in vivo pAKT data, ED50 (uM) WB: first value of the cell; for in vivo pAKT data, ED50 (uM) spleenocytes: second value of the cell
# Description: Vehicle and compounds are administered p.o. (0.2 mL) by gavage (Oral Gavage Needles Popper & Sons, New Hyde Park, N.Y.) to mice (Transgenic Line 3751, female, 10-12 wks Amgen Inc, Thousand Oaks, Calif.) 15 min prior to the injection i.v (0.2 mLs) of anti-IgM FITC (50 ug/mouse) (Jackson Immuno Research, West Grove, Pa.). After 45 min the mice are sacrificed within a CO2 chamber. Blood is drawn via cardiac puncture (0.3 mL) (1cc 25 g Syringes, Sherwood, St. Louis, Mo.) and transferred into a 15 mL conical vial (Nalge/Nunc International, Denmark). Blood is immediately fixed with 6.0 mL of BD Phosflow Lyse/Fix Buffer (BD Bioscience, San Jose, Calif.), inverted 3X's and placed in 37° C. water bath. Half of the spleen is removed and transferred to an eppendorf tube containing 0.5 mL of PBS (Invitrogen Corp, Grand Island, N.Y.). The spleen is crushed using a tissue grinder (Pellet Pestle, Kimble/Kontes, Vineland, N.J.) and immediately fixed with 6.0 mL of BD Phosflow Lyse/Fix buffer, inverted 3X's and placed in 37° C. water bath. Once tissues have been collected the mouse is cervically-dislocated and carcass to disposed. After 15 min, the 15 mL conical vials are removed from the 37° C. water bath and placed on ice until tissues are further processed. Crushed spleens are filtered through a 70 μm cell strainer (BD Bioscience, Bedford, Mass.) into another 15 mL conical vial and washed with 9 mL of PBS. Splenocytes and blood are spun @ 2,000 rpms for 10 min (cold) and buffer is aspirated. Cells are resuspended in 2.0 mL of cold (−20° C.) 90% methyl alcohol (Mallinckrodt Chemicals, Phillipsburg, N.J.). MeOH is slowly added while conical vial is rapidly vortexed. Tissues are then stored at −20° C. until cells can be stained for FACS analysis.
# [6] = molecular target: T3, PI3K d (Homo sapiens, UniProt O00329); assay: In vitro enzyme assay, PI3K delta; assay type: biochemical
# T3 construct: Full length p110 subunits of PI3k α, β and δ, N-terminally labeled with polyHis tag; polyHis (N); made in house; host or cells: Sf9 insect cells (baculovirus)
# T3 sequence (O00329 whole entry): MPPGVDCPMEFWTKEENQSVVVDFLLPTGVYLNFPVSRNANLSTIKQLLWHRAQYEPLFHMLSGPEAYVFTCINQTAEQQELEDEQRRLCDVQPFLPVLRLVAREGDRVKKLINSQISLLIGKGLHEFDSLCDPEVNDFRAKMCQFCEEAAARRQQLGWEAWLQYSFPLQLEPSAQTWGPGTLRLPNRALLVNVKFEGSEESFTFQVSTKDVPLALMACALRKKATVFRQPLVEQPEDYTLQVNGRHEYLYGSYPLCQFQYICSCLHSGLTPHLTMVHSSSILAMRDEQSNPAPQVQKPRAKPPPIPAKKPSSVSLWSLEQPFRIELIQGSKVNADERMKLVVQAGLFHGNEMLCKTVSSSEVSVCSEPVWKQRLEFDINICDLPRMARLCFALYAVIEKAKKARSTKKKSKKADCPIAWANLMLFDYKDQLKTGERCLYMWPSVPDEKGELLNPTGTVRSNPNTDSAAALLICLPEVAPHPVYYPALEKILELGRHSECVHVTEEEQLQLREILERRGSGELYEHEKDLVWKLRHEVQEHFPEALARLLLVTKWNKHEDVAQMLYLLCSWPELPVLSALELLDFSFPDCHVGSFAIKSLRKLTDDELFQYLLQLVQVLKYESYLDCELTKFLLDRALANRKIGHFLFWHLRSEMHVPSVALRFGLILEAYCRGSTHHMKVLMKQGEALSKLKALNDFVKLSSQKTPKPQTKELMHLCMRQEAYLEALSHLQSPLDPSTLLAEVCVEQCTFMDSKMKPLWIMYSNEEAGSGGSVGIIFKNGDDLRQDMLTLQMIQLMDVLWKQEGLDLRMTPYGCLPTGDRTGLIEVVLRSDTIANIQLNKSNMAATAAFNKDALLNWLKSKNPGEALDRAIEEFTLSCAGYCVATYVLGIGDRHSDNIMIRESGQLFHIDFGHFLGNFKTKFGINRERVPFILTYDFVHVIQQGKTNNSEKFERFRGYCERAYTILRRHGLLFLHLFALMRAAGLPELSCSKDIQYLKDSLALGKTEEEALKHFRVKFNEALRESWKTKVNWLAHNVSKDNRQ
# T3 sequence (P27986 whole entry partner): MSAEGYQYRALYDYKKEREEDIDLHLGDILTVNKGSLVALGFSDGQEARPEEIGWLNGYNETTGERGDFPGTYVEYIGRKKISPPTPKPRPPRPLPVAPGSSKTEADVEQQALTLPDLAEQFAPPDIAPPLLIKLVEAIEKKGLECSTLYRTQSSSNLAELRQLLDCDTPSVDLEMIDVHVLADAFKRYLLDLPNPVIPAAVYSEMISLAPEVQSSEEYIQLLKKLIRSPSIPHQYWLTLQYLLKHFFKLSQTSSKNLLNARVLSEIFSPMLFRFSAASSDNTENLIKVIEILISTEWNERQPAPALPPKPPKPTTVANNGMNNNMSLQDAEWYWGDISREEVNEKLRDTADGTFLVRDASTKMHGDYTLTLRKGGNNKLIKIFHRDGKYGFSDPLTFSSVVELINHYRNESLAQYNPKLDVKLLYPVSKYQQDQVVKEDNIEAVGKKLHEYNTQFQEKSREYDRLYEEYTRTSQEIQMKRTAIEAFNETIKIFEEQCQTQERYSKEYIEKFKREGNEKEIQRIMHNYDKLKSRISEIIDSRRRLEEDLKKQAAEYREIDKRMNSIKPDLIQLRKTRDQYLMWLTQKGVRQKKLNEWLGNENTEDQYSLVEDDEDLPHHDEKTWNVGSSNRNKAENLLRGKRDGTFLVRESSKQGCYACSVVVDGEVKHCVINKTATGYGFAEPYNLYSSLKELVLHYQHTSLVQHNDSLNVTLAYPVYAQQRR
# Description: as §2, §3
# [7] = molecular target: T1, PI3Kb; assay: PI3Kb MB MDA468 cell assay; assay type: cell-based; design: endogenous in cells; host or cells: MDA MB468 (Forkhead-DiversaGFP) cells; settings: second value of the cell; read-out: PI3KbMBMDA468
# [8] = molecular target: T1, PI3Kb; assay: In vitro enzyme assay, PI3K beta; assay type: biochemical; design: Full length p110 subunits of PI3k α, β and δ, N-terminally labeled with polyHis tag; polyHis (N); made in house; host or cells: Sf9 insect cells (baculovirus); settings: read-out: P13K b IC50
# Description: as §2, §3
# [9] = tested on: PI3K b; assay: In vitro enzyme assay, PI3K beta; assay type: biochemical; settings: ratio of beta to delta IC50
# Description: as §2, §3
# [10] = molecular target: T4, PI3KIII (Homo sapiens, UniProt Q8NEB9); assay: Class III PI(3)P assay (U20S EGFP-2XFYVE cells); assay type: cell-based
# T4 construct: host or cells: U2OS EGFP-2XFYVE cells
# T4 sequence (Q8NEB9 whole entry): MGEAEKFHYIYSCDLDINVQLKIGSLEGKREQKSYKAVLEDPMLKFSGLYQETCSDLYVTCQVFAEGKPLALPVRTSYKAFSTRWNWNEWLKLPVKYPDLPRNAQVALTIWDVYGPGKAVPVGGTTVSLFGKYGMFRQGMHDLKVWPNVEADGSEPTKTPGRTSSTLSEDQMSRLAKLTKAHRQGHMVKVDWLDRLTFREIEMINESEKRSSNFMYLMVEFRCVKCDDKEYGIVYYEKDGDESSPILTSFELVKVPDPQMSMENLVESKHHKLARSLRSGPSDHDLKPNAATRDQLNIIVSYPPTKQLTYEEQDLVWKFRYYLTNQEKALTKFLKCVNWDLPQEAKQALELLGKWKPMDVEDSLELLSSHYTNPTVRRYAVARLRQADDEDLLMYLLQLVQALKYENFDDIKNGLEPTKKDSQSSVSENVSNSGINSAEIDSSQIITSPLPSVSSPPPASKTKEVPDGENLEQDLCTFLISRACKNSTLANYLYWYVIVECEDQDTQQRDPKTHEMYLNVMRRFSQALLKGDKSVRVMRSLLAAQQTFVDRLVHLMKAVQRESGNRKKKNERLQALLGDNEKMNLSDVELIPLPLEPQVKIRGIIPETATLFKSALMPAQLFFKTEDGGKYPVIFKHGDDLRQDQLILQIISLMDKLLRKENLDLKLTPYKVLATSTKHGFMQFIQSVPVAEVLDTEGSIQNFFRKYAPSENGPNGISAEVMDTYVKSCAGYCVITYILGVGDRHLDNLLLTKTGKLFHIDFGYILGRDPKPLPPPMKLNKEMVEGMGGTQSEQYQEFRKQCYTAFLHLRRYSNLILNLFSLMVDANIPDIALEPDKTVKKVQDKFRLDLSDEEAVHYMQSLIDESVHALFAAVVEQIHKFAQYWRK
# Description: as §1
# FYVE domains bind to PI(3)P. the majority is generated by constitutive action of PI3K Class III
# Class III PI(3)P assay (U20S EGFP-2XFYVE Cells/GE Healthcare)
# Wash cells with assay buffer. Treat with compounds in assay buffer 1 h. Fix and image.
# Control for all 3 assays is […] Wortmannin:
# PI(3)P depleted from endosomes
# [11] = molecular target: T5, PI3Ka (Homo sapiens, UniProt P42336); assay: In vitro enzyme assay, PI3K alpha; assay type: biochemical; settings: for PI3K: a/d: ratio of alpha to delta IC50
# T5 construct: Full length p110 subunits of PI3k α, β and δ, N-terminally labeled with polyHis tag; polyHis (N); made in house; host or cells: Sf9 insect cells (baculovirus)
# T5 sequence (P42336 whole entry): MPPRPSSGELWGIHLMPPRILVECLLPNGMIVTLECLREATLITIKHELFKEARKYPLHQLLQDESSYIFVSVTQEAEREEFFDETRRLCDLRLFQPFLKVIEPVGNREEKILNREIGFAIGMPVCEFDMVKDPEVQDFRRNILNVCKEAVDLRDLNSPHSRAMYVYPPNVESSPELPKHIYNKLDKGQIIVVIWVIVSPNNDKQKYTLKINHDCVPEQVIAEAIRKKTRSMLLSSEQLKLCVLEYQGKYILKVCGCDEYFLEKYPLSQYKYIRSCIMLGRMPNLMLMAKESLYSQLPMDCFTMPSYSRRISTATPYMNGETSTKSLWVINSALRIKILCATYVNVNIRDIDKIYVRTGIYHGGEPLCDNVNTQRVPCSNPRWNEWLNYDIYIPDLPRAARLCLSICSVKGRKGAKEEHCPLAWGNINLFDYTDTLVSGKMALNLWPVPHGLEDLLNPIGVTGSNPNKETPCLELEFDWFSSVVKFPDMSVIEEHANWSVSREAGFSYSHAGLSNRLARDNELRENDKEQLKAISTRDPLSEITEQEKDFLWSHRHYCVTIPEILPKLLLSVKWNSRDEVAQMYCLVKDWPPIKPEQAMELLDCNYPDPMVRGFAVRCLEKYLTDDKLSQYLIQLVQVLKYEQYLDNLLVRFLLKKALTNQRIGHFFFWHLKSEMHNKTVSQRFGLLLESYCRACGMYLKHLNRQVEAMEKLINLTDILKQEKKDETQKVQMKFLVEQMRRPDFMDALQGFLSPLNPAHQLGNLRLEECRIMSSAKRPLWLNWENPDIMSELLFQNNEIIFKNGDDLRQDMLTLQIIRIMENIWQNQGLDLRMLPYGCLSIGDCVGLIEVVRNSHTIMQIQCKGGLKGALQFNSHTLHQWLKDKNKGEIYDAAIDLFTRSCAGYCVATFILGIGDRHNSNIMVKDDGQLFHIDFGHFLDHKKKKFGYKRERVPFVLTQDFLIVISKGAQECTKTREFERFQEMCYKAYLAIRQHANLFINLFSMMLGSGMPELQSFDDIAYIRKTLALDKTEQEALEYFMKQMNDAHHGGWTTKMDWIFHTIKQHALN
# T5 sequence (P27986 whole entry partner): as the sequence (P27986 whole entry partner) above
# Description: as §2, §3
# [12] = tested on: mu splenocytes pAKT; assay: on target anti-IgM mu splenocytes pAKT; assay type: cell-based; settings: Mus musculus, Splenocyte, read-out: on target anti-IgM mu splenocytes pAKT (Hu splenocytes PAKT)
# [13] = tested on: protein kinases; settings: cited from earlier work
# [14] = molecular target: p110δ (Homo sapiens, UniProt O00329); settings: cited from earlier work
# Chain of p110δ (O00329 whole entry, species assumed): as the sequence (O00329 whole entry) above
# [15] = tested on: murine model of asthma; settings: ovalbumin-induced airway inflammation; cited from earlier work
Compound,IC50 [3],IC50 [4],PI3K: g/d [4],"in vivo pAKT data, ED50 (uM) WB [5]","in vivo pAKT data, ED50 (uM) spleenocytes [5]",IC50 [6],IC50 [7],IC50 [8],PI3K: b/d [9],IC50 [10],PI3Ka IC50 [11],PI3K: a/d [11],IC50 [12],further results
O=C1NC(=O)/C(=C\c2ccc3nccnc3c2)S1 [AS 605240],–,–,–,–,–,–,–,–,–,–,–,–,–,onset of disease in a model of systemic lupus erythematosis [1]: delay onset of disease; efficacy in a mouse model of rheumatoid arthritis [2]: efficacious
"C[C@H](Nc1ncnc(N)c1C#N)c1cc2cccc(F)c2nc1-c1ccccc1S(C)(=O)=O [Example 1, 4-amino-6-(((1S)-1-(8-fluoro-2-(2-(methylsulfonyl)phenyl)-3-quinolinyl)-ethyl)amino)-5-pyrimidinecarbonitrile]",5970 nM,1610 nM,537,0.041 uM,0.010 uM,3 nM,2600 nM,4740 nM,1580,> 10000 nM,9980 nM,3327,2.2 nM,–
"C[C@H](Nc1ncnc(N)c1C#N)c1cc2ccc(F)cc2nc1-c1ccccc1S(C)(=O)=O [Example 2, (S)-4-amino-6-((1-(7-fluoro-2-(2-(methylsulfonyl)phenyl)quinolin-3-yl)ethyl)-amino)pyrimidine-5-carbonitrile]",> 10000 nM,804 nM,103,0.36 uM,0.26 uM,7.8 nM,811 nM,1360 nM,174,> 10000 nM,7040 nM,903,1.2 nM,–
"C[C@H](Nc1ncnc(N)c1C#N)c1cc2ccc(F)cc2nc1-c1cccc(F)c1 [Example 3, 4-amino-6-((S)-1-(7-fluoro-2-(3-fluorophenyl)quinolin-3-yl)ethylamino)-pyrimidine-5-carbonitrile]",3800 nM,62.9 nM,12,–,–,5.1 nM,483 nM,434 nM,85,> 10000 nM,3420 nM,671,1.5 nM,–
"C[C@H](Nc1ncnc(N)c1C#N)c1cc2ccc(F)cc2nc1-c1ccccn1 [Example 4, 4-amino-6-((S)-1-(7-fluoro-2-(pyridin-2-yl)quinolin-3-yl)ethylamino)-pyrimidine-5-carbonitrile]",1950 nM,448 nM,45,–,–,10 nM,620 nM,522 nM,52,> 10000 nM,12060 nM,1206,1.8 nM,–
"C[C@H](Nc1ncnc(N)c1C#N)c1nc2cccc(Cl)c2nc1-c1ccccc1S(C)(=O)=O [Example 5, (S)-4-amino-6-((1-(5-chloro-3-(2-(methylsulfonyl)phenyl)quinoxalin-2-yl)-ethyl)amino)pyrimidine-5-carbonitrile]",> 10000 nM,620 nM,238,0.056 uM,0.012 uM,2.6 nM,> 10000 nM,652 nM,251,> 10000 nM,5160 nM,1985,5 nM,–
"C[C@H](Nc1ncnc(N)c1C#N)c1nc2cccc(C#N)c2nc1-c1ccccc1S(C)(=O)=O [Example 6, 2-((S)-1-(6-amino-5-cyanopyrimidin-4-ylamino)ethyl)-3-(2-(methylsulfonyl)-phenyl)quinoxaline-5-carbonitrile]",–,2800 nM,400,0.13 (WB) uM,–,7 nM,11000 nM,5800 nM,829,> 10000 nM,25000 nM,3571,6 nM,–
Cc1ccccc1-n1c(Cn2cnc3c(N)ncnc32)nc2cccc(C)c2c1=O [IC87114],–,–,–,–,–,–,–,–,–,–,–,–,–,activity against any protein kinases tested [13]: no activity; inhibits p110δ [14]: high nanomolar range (triple digit); selectivity against p110α ([14]; delta versus p110α): greater than 100 fold; selective against p110β ([14]; delta versus p110β): 52 fold; selectivity against p110γ ([14]; delta versus p110γ): approx. 8 fold; inflammation and disease in a murine model of asthma [15]: significantly ameliorate inflammation and disease
